Data on three compounds can be found in patent publication US10526345B2, “Compounds as GPR119 agonists” (Mankind Pharma Ltd., priority 2016, dated 2020).

The structures appear in SMILES notation.

The EC50 is the concentration at which the effect is half-maximal. Read a high EC50 as lower potency in that assay.

One assay concerns the target T1, hGPR119 (Homo sapiens, UniProt Q8TDV5).
T1 construct: expressed in transfected cells; host or cells: CHO
T1 sequence (Q8TDV5 1-335): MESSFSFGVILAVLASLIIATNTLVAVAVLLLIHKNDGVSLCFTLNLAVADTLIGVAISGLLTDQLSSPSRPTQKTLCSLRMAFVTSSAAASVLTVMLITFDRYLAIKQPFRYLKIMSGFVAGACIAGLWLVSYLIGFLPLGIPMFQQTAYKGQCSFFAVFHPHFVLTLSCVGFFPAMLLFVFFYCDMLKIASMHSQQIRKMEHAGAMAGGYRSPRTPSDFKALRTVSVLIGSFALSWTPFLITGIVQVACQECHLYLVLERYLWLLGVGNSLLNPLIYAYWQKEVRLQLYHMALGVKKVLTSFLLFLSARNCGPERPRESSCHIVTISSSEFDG
In words: In vitro cyclic AMP assay (Cisbio dynamic 2 HTRF kit) in CHO-hGPR119 cells. It counts as cell-based. To be noted: cAMP; for activation at 1 µM: 1 h, compound at 1 μM, 60 min, read-out: Induction (% induction at 1 μM). (In general: TR-FRET usually uses a lanthanide donor and a delayed reading to cut background.)

Another assay relates to Male C57BL/6 mice. The experiment in a line: Oral glucose tolerance test in C57BL/6 mice. To be noted: 3 mpk and 10 mpk, glucose 2 g/kg. It counts as in vivo. The method, then: (§1) Male C57BL/6 mice (8-10 weeks) were grouped based on basal glucose levels and animals were fasted for 16 hours. Glucose level of each animal was estimated in blood collected from tail vein before animals were dosed orally with 0.5% Tween 80 and 0.5% NaCMC (vehicle control) and compounds at 3 and 10 mpk (n=5). After 30 minutes of compound dosing, blood glucose was again estimated and 2 g/kg/10 ml (20%) of Glucose solution was administered orally to all the animals. Blood glucose was estimated at 15, 30, 60, 90 and 120 minutes time points after glucose administration. Accu-Check active blood glucose meter was utilised for estimation of blood from tail vein.
Glucose reduction observed in animals treated with compounds of present invention is represented in terms of % AUC reduction. A greater glucose reduction in oral glucose tolerance test indicates the compound's efficacy in this rodent species.

The subject of a further assay is Male SD rats. In words: Oral glucose tolerance test in Sprague-Dawley rats. It counts as in vivo. As to conditions: 3 mpk and 10 mpk, glucose 2 g/kg. The method, then:
as §1, with “SD rats” for “C57BL/6 mice”
Glucose reduction observed in animals treated with GPR119 agonists is represented in terms of % AUC reduction. A greater glucose reduction in oral glucose tolerance test indicates the compound's efficacy in this rodent species.

For the compound `CC(C)c1noc(N2CCC([C@H](C)Oc3nc4ccc(-c5ccc(S(C)(=O)=O)nc5)nc4s3)CC2)n1` [Compound 1082, (S)-3-isopropyl-5-(4-(1-((5-(6-(methylsulfonyl)pyridin-3-yl)thiazolo[5,4-b]pyridin-2-yl)oxy)ethyl)piperidin-1-yl)-1,2,4-oxadiazole], at hGPR119, the activation at 1 µM is 82% and the 50% effective concentration (EC50) was less than 0.025 µM. For the same compound, the “glucose reduction (% AUC reduction) in oral glucose tolerance test” value (“glucose reduction (% AUC reduction)” below) in the assay on Male C57BL/6 mice is “significant dose dependent glucose reduction”. Besides, the “glucose reduction (% AUC reduction)” value in the assay on Male SD rats was “significant dose dependent glucose reduction”.
Turning to `CC(C)c1noc(N2CCC([C@H](C)Oc3nc4ccc(-c5cnc(Cl)nc5)nc4s3)CC2)n1` [Compound 1119, (S)-5-(4-(1-((5-(2-chloropyrimidin-5-yl)thiazolo[5,4-b]pyridin-2-yl)oxy)ethyl)piperidin-1-yl)-3-isopropyl-1,2,4-oxadiazole], at hGPR119, the activation at 1 µM stood at 75% and the concentration for a half-maximal effect (EC50) was less than 0.025 µM. Further, in the assay on Male C57BL/6 mice, the “glucose reduction (% AUC reduction)” value is “significant dose dependent glucose reduction”. For the same compound, the “glucose reduction (% AUC reduction)” value in the assay with Male SD rats is recorded as “significant dose dependent glucose reduction”.
`CCCc1cnc(N2CCC([C@H](C)Oc3nc4ccc(-c5ccc(S(C)(=O)=O)nc5)nc4s3)CC2)nc1` [Compound 1099, (S)-5-(6-(methylsulfonyl)pyridin-3-yl)-2-(1-(1-(5-propylpyrimidin-2-yl)piperidin-4-yl)ethoxy)thiazolo[5,4-b]pyridine]: on hGPR119, the activation at 1 µM was found to be 81% and the EC50 is less than 0.025 µM. The “glucose reduction (% AUC reduction)” value in the assay on Male C57BL/6 mice is given as “significant dose dependent glucose reduction”. Also, the “glucose reduction (% AUC reduction)” value with Male SD rats is “significant dose dependent glucose reduction”.
